Reference: patent US20250296932A1, “PHARMACEUTICAL COMPOSITIONS COMPRISING HIV INTEGRASE INHIBITORS” (priority 2024, published 2025)

What was measured:
[1] = system: HIV-1 (HXB2) site directed mutant Y143R; experiment: HIV-1 replication in MT-4 cells, INSTI resistant site-directed mutant Y143R; format: cell-based; details: 5 days, Cell Titer Glo, at least 3 independent experiments in quadruplicate
Description: (§1) The compound of Formula I, along with control compounds bictegravir and raltegravir, were tested in a high-throughput 384-well assay format for ability to inhibit the replication of HIV-1 (HXB2) in MT-4 cells. Compounds were serially diluted (1:3) in 10 ul DMSO on 384-well plates and then diluted 187-fold into complete RPMI media using the uFLow and Biomek FX. 0.4 uL of compound was added in quadruplicate to 384-well assay plates. Each plate contained 8 test compounds, plus DMSO negative and 5 uM AZT positive controls. 1 mL aliquots of 2M MT-4 cells were pre-infected for 1 hr, @ 37° C. with 25 uL (MT-4) of either RPMI (mock-infected) or a fresh 1:250 dilution of an HIV-1 (HXB2 WT or site directed mutants containing either single INSTI Mutations E92Q, Y143R, Q148R, N155H, or R263K or double mutations E92Q/N155H, E138K/Q148K, or G140S/Q148R) concentrated ABI stock. Infected and uninfected cells were diluted in RPMI and 35 uL containing 2000 MT-4 cells was added to each well of assay plates, using the uFLow and subsequently incubated for 5 days at 37° C. in an incubator set at 5% CO2 and 90% humidity. After 5 days, 22 uL Cell Titer Glo (Promega, Madison, WI, Cat #G7573) was added to the assay plates with a Biotek uFlow Workstation. Plates were subsequently placed on a Perkin Elmer Envision Plate Reader for 5 minutes before the luminescence signal was read. EC50 values were defined as the compound concentration that causes a 50 decrease in luminescence signal, a measure of HIV-1 replication, and were calculated in Accord (online tool) using a one-site dose-response model to generate sigmoidal curve fits. Fold shifts for mutant viruses were obtained by calculating EC50 values relative to the HXB2 WT control.
(§2) The mean fold change values (relative to WT) are from at least 3 independent experiments assayed in quadruplicate.

[2] = system: HIV-1 (HXB2) site directed mutant N155H; experiment: HIV-1 replication in MT-4 cells, INSTI resistant site-directed mutant N155H; format: cell-based; details: 5 days, Cell Titer Glo, at least 3 independent experiments in quadruplicate
Description: as §1, §2

[3] = system: HIV-1 (HXB2) site directed mutant R263K; experiment: HIV-1 replication in MT-4 cells, INSTI resistant site-directed mutant R263K; format: cell-based; details: 5 days, Cell Titer Glo, at least 3 independent experiments in quadruplicate
Description: as §1, §2

[4] = system: HIV-1 (HXB2) site directed mutant E92Q; experiment: HIV-1 replication in MT-4 cells, INSTI resistant site-directed mutant E92Q; format: cell-based; details: 5 days, Cell Titer Glo, at least 3 independent experiments in quadruplicate
Description: as §1, §2

[5] = system: HIV-1 (HXB2) site directed mutant E138K/Q148K; experiment: HIV-1 replication in MT-4 cells, INSTI resistant site-directed mutant E138K/Q148K; format: cell-based; details: 5 days, Cell Titer Glo, at least 3 independent experiments in quadruplicate
Description: as §1, §2

[6] = system: HIV-1 (HXB2) site directed mutant Q148R; experiment: HIV-1 replication in MT-4 cells, INSTI resistant site-directed mutant Q148R; format: cell-based; details: 5 days, Cell Titer Glo, at least 3 independent experiments in quadruplicate
Description: as §1, §2

[7] = system: HIV-1 (HXB2) site directed mutant G140S/Q148R; experiment: HIV-1 replication in MT-4 cells, INSTI resistant site-directed mutant G140S/Q148R; format: cell-based; details: 5 days, Cell Titer Glo, at least 3 independent experiments in quadruplicate
Description: as §1, §2

[8] = system: HIV-1 (HXB2) site directed mutant E92Q/N155H; experiment: HIV-1 replication in MT-4 cells, INSTI resistant site-directed mutant E92Q/N155H; format: cell-based; details: 5 days, Cell Titer Glo, at least 3 independent experiments in quadruplicate
Description: as §1, §2

[9] = system: NRTI-resistant (NRTI-r) HIV-1 mutants (LAI-based viruses encoding RT mutations K65R, M184V, M41L+T215Y); experiment: Antiviral potency against panel of HIV-1 mutants: NRTI-resistant; format: cell-based; details: relative to WT; at least three experiments run in triplicate; controls: NRTIs (TAF, FTC)
Description: (§3) The human T-lymphoblastoid MT-2 and SupTI cell lines were obtained from the NIH AIDS Reagent Program (Germantown, MD) and maintained in RPMI-1640 medium supplemented with 10% heat-inactivated fetal bovine serum, 100 units/mL penicillin, and 10 μg/mL streptomycin (complete RPMI media). Cells were passaged twice per week and kept at densities less than 800,000 cells per mL. Adherent HEK293T cells were obtained from the Gladstone Institute for Virology and Immunology (San Francisco, CA) and maintained at densities below 80% confluency in Dulbecco's Modified Eagle Medium (DMEM) (Gibco) supplemented with 10% heat-inactivated FBS, 100 units/mL penicillin, and 10 μg/mL streptomycin (complete DMEM media). Unless otherwise noted, HIV-1 recombinant strains carrying mutations were prepared by transfecting infectious proviral pLAI-based or pHXB2-based cDNA clones into MT-2 cells and harvesting the cell supernatants. The NNRTI-resistant HXB2-based viruses encoding reverse transcriptase (RT) mutations (K103N, Y181C, Y188L, L100I+K103N, and G190A) were constructed by site-directed mutagenesis. The NRTI-resistant LAI-based viruses encoding RT mutations K65R, M184V, and M41L+T215Y were constructed by site-directed mutagenesis. […].
(§4) The EC50 fold change range is the mean±standard deviation from at least three experiments run in triplicate. […]

[10] = system: CAI-resistant (CAI-r) HIV-1 reporter viruses encoding capsid mutations (L56I, N57H, M66I, K70N, Q67H+N74D, Q67H+T107N); experiment: Antiviral potency against panel of HIV-1 mutants: CAI-resistant single cycle reporter viruses; format: cell-based; details: relative to WT; at least three experiments run in triplicate; control: CAI (LEN)
Description: as §3, §4

[11] = system: NNRTI-resistant (NNRTI-r) HIV-1 mutants (HXB2-based viruses encoding RT mutations K103N, Y181C, Y188L, L100I+K103N, G190A); experiment: Antiviral potency against panel of HIV-1 mutants: NNRTI-resistant; format: cell-based; details: relative to WT; at least three experiments run in triplicate; control: NNRTI (EFV)
Description: as §3, §4

[12] = system: PI-resistant (PI-r) HIV-1 mutants (HXB2-based viruses encoding protease mutations 150V, 184V+L90M, G48V+V82A+L90M, G48V+V82S); experiment: Antiviral potency against panel of HIV-1 mutants: PI-resistant; format: cell-based; details: relative to WT; at least three experiments run in triplicate; controls: PIs (DRV, ATV)
Description: as §3, §4

[13] = Hygroscopicity by dynamic vapor sorption (DVS) of crystalline forms, salts and co-crystals; format: physicochemical
Description: Hygroscopicity was studied using dynamic vapor sorption (DVS, TA Q5000 SA, TA Instruments, New Castle, DE or DVS, DVS Intrinsic, Surface Measurement Systems, London, UK). […] The water sorption and desorption were studied as a function of relative humidity (RH) at 25° C. […] Data analysis was performed using Universal Analysis 2000 Version 4.7A (TA Instruments, New Castle, DE) for TA DVS runs and Microsoft Excel for SMS DVS runs.

Structure (SMILES)	Mean EC50 Fold Change (relative to WT), Y143R [1]	Mean EC50 Fold Change (relative to WT), N155H [2]	Mean EC50 Fold Change (relative to WT), R263K [3]	Mean EC50 Fold Change (relative to WT), E92Q [4]	Mean EC50 Fold Change (relative to WT), E138K/Q148K [5]	Mean EC50 Fold Change (relative to WT), Q148R [6]	Mean EC50 Fold Change (relative to WT), G140S/Q148R [7]	Mean EC50 Fold Change (relative to WT), E92Q/N155H [8]	EC50 Fold Change, Range, NRTI-r [9]	EC50 Fold Change, Range, CAI-r [10]	EC50 Fold Change, Range, NNRTI-r [11]	EC50 Fold Change, Range, PI-r [12]	form of the material post DVS experiment ([13]; after DVS sorption/desorption at 25° C.)	water absorbed (DVS) ([13]; up to 95% RH at 25° C.)
O=C(NCc1c(F)cc(F)cc1F)c1cn2c(c(O)c1=O)C(=O)N1[C@H]3CC[C@H](C3)O[C@@H]1C2 [Bictegravir]	1.8 fold	1.3 fold	1.9 fold	1.6 fold	4.4 fold	0.7 fold	2.1 fold	1.2 fold	–	–	–	–	–	–
Cc1nnc(C(=O)NC(C)(C)c2nc(C(=O)NCc3ccc(F)cc3)c(O)c(=O)n2C)o1 [Raltegravir]	18 fold	6.1 fold	1.1 fold	4.8 fold	6.5 fold	16 fold	108 fold	58 fold	–	–	–	–	–	–
C[C@@H]1C=C[C@H](C)N2CN1n1cc(C(=O)NCc3c(F)cc(F)cc3F)c(=O)c(O)c1C2=O [Compound of Formula I, (1S,2R,5S)-8-hydroxy-2,5-dimethyl-7,9-dioxo-N-(2,4,6-trifluorobenzyl)-2,5,7,9-tetrahydro-1,6-methanopyrido[1,2-b][1,2,5]triazonine-10-carboxamide]	2.5 fold	1.9 fold	2.0 fold	2.7 fold	9.5 fold	1.0 fold	5.5 fold	1.8 fold	0.4-0.8 fold	0.8-1.2 fold	0.7-2.4 fold	0.4-1.3 fold	–	–
C[C@@H]1C=C[C@H](C)N2CN1n1cc(C(=O)NCc3c(F)cc(F)cc3F)c(=O)c(O)c1C2=O [Compound of Formula I, Form I, (1S,2R,5S)-8-hydroxy-2,5-dimethyl-7,9-dioxo-N-(2,4,6-trifluorobenzyl)-2,5,7,9-tetrahydro-1,6-methanopyrido[1,2-b][1,2,5]triazonine-10-carboxamide]	–	–	–	–	–	–	–	–	–	–	–	–	not have changed form	about 0.15%
